This is an account of results in patent publication US8148378B2, “Pyridazine derivatives and their use as inhibitors of stearoyl-CoA desaturase-1 activity in a mammal” (Xenon Pharmaceuticals Inc., priority 2003, dated 2012).

pIC50: −log10 of the molar value. Read-outs that look alike come from different tables or passages of the source.

In assay [1] the target is T1, SCD (Homo sapiens, UniProt O00767).
T1 sequence (O00767 1-359): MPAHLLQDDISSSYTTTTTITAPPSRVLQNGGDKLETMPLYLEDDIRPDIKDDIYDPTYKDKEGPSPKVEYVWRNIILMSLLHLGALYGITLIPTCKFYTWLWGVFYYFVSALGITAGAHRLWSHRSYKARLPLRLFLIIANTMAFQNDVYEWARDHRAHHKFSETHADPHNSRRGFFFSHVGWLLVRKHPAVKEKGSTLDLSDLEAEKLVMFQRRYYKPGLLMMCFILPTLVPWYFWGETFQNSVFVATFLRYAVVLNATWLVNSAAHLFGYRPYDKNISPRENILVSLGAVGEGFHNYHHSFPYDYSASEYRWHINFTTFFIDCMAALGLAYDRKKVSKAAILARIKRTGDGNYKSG
Nature of the assay: Cell IC50 of SCD inhibitors (Table 1, no method given). The class given is cell-based. To be noted: cell assay, cell type not stated.

Assay [2] concerns the target T2, Stearoyl-CoA Desaturase (SCD) (Mus musculus, UniProt P13516).
T2 construct: from tissue; host or cells: liver microsomes of male ICR mice on a high-carbohydrate, low fat diet
T2 sequence (P13516 1-355): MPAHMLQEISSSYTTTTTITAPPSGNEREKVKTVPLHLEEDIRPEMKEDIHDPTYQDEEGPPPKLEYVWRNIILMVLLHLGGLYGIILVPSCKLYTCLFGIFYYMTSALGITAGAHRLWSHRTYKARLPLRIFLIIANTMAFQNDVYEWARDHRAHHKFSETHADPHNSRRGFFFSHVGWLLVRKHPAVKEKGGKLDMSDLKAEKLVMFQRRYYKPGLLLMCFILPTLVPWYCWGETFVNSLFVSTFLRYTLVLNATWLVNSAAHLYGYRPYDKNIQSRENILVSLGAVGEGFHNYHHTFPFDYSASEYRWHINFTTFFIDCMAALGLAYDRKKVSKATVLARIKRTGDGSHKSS
Put plainly: Stearoyl-CoA desaturase inhibition using mouse liver microsomes. To be noted: for Residual Activity (% remaining, 1 μM): % SCD enzyme activity remaining at 1 μM test compound; for Residual Activity (% remaining, 10 μM): % SCD enzyme activity remaining at 10 μM test compound. It is filed as biochemical. The method, then: Preparation of Mouse Liver Microsomes:
The absence of mitochondrial contamination is enzymatically assessed.
Incubation of Mouse Liver Microsomes with Test Compounds: […]
For orientation: Microsomes from liver hold many membrane-bound enzymes, among them those of drug oxidation.

Setting [3] is: microsomal assay, read-out: Microsome IC50.
The mark [4] stands for this setting: projected from residual activity at 1 and 10 μM, read-out: Projected IC50.

For `CC(C)CCSc1ccc(N2CCN(C(=O)c3ccccc3C(F)(F)F)CC2)nn1` [Example 6.1, {4-[6-(3-METHYLBUTYLSULFANYL)PYRIDAZIN-3-YL]PIPERAZIN-1-YL}-(2-TRIFLUOROMETHYL-PHENYL)METHANONE], the negative-log IC50 (pIC50) in assay [1] is 6.07; in assay [2] (setting [3]), 6.35.

As to `CCCS(=O)(=O)Nc1ccc(N2CCN(C(=O)c3ccccc3C(F)(F)F)CC2)nn1` [Example 2, PROPANE-1-SULFONIC ACID {6-[4-(2-TRIFLUOROMETHYLBENZOYL)PIPERAZIN-1-YL]PYRIDAZIN-3-YL}AMIDE], the pIC50 in assay [1] is 4.98; in assay [2] (setting [3]), 5.20.

`O=C(c1ccccc1C(F)(F)F)N1CCN(c2ccc(OCCc3ccccc3)nn2)CC1` [Example 5, [4-(6-PHENETHYLOXYPYRIDAZIN-3-YL)PIPERAZIN-1-YL]-(2-TRIFLUOROMETHYL-PHENYL)METHANONE]: the pIC50 was 5.37 in assay [1] and 5.34 in assay [2] (setting [3]).

With `CN(CCc1ccccc1)c1ccc(N2CCN(C(=O)c3ccccc3C(F)(F)F)CC2)nn1` [Example 1, {4-[6-(METHYLPHENETHYLAMINO)PYRIDAZIN-3-YL]PIPERAZIN-1-YL}-(2-TRIFLUOROMETHYLPHENYL)METHANONE], in assay [2], the “Residual Activity (% remaining, 1 μM)” value worked out at 86.210 % remaining and the “Residual Activity (% remaining, 10 μM)” value is 57.955 % remaining. The pIC50 in assay [2] (setting [4]) was 4.30 to 5.00.

`O=C(c1ccccc1C(F)(F)F)N1CCN(c2ccc(S(=O)(=O)CCc3ccccc3)nn2)CC1` [Example 3, {4-[6-(2-PHENYLETHANESULFONYL)PYRIDAZIN-3-YL]PIPERAZIN-1-YL}-(2-TRIFLUOROMETHYL-PHENYL)METHANONE]: the pIC50 in assay [1] was 6.95; in assay [2] (setting [3]), 7.17.

Consider `O=C(c1ccccc1C(F)(F)F)N1CCN(c2ccc(SCCc3ccccc3)nn2)CC1` [Example 6, [4-(6-PHENETHYLSULFANYLPYRIDAZIN-3-YL)PIPERAZIN-1-YL](2-TRIFLUOROMETHYLPHENYL)METHANONE], for which the pIC50 in assay [1] was 7.48; in assay [2] (setting [3]), 7.22.

Take `O=C(c1ccccc1C(F)(F)F)N1CCN(c2ccc([S+]([O-])CCc3ccccc3)nn2)CC1` (stereo not drawn) [Example 4]: the pIC50 in assay [1] was 6.76; in assay [2] (setting [3]), 7.17.

For `O=C(c1ccccc1C(F)(F)F)N1CCN(c2ccc(NCCc3ccccc3)nn2)CC1` [Example 1.1, [4-(6-PHENETHYLAMINOPYRIDAZIN-3-YL)PIPERAZIN-1-YL]-(2-TRIFLUOROMETHYLPHENYL)METHANONE], in assay [2], the “Residual Activity (% remaining, 1 μM)” value is 91.144 % remaining and the “Residual Activity (% remaining, 10 μM)” value was 55.946 % remaining. In addition, the pIC50 in assay [2] (setting [4]) is 4.30 to 5.00.

`O=C(c1ccccc1C(F)(F)F)N1CCN(c2ccc(OCCC3CC3)nn2)CC1` [Example 5.1, {4-[6-(2-CYCLOPROPYLETHOXY)PYRIDAZIN-3-YL]PIPERAZIN-1-YL}-(2-TRIFLUOROMETHYLPHENYL)METHANONE]: in assay [2], the “Residual Activity (% remaining, 1 μM)” value was 53.875 % remaining and the “Residual Activity (% remaining, 10 μM)” value is recorded as 29.330 % remaining. Further, the pIC50 in assay [2] (setting [4]) is 5.00 to 6.00.

What is called pIC50 is the IC50 on a negative log10 scale, so that one unit is a factor of ten.
